IC50 data for 17 compounds are collected here from patent publication US20260152494A1, “CDK2 INHIBITORS AND METHODS OF USING THE SAME” (Cedilla Therapeutics, Inc., priority 2022, published 2026).

Test [1] addresses T1, CDK2/Cyclin E1 (Homo sapiens, UniProt P24941).
T1 construct: purchased Eurofins 14-475
Kind of test: ADPGLO (CDK2/E1-37C) ADP-Glo Luminescent Kinase Assay. The format is biochemical. Particulars: 0.18 nM CDK2/Cyclin E1, 100 μM ATP, 1.5 μM Histone H1, 37° C., 60 min preincubation. On the procedure:
Example A2: ADPGLO (CDK2/E1-37C)
Inhibition of CDK2/Cyclin E1 activity by the presence of small molecules was evaluated using ADP-Glo Luminescent Kinase Assay (Promega). Activated CDK2/Cyclin E1 was incubated with its substrate Histone H1 (SignalChem H10-54N) in the kinase reaction buffer (100 μM ATP, 50 mM HEPES pH 7.5, 10 mM MgCl2, 1 mM EDTA, 2 mM DTT, 0.01% Brij35, 0.5 mg/mL BSA). Luminescence was recorded with an Envision plate reader (PerkinElmer).
Dose titrations of inhibitors in 100% DMSO were combined with 0.36 nM CDK2/Cyclin E1 in reaction buffer. The mixtures were incubated for 60 minutes at 37° C. before the addition of ATP and Histone H1 substrate to initiate the kinase reaction. The final conditions were 0.18 nM CDK2/Cyclin E1, 100 μM ATP, and 1.5 μM Histone H1. The reactions were incubated at 37° C. for 90 minutes before being stopped with the addition of ADP-Glo reagent. This mixture was incubated at room temperature for 60 minutes before Kinase Detection Solution is added to generate luminescence. The stopped reactions were analyzed on an Envision plate reader. The conversion ratios were normalized to yield % activity, plotted against compound concentration, and fit to a four-parameter equation to determine the IC50 for each compound.
For orientation: In ADP-Glo the light output rises with the ADP produced.

In test [2] the test system is Kuramochi cells labeled with mApple-H2B. Kind of test: IncuCyte cell proliferation assay. In kind it is cell-based. Particulars: Kuramochi RB-WT cells, 72 hours, cell count normalized to DMSO. Here is the method: Example A3: IncuCyte® Cell Proliferation Assay
IncuCyte® assay was used to measure the effect of disclosed compounds on cell proliferation. Fluorescent microscopy images of cells were taken immediately after compound treatment and 72 hours later. Image analysis software was used to obtain cell counts as a function of compound concentration. Kuramochi cells labeled with mApple-H2B were seeded on 384-well assay-ready plates. Plates were placed in an IncuCyte® (Sartorius) and scanned at 0 and 72 hours. IncuCyte® software was used to count the number of fluorescent nuclei in each well. The fold change in cell count from 0 to 72 hours in wells treated with increasing compounds concentrations (10 pts, 1/2 log dilution, 20 μM top concentration) was normalized to DMSO control wells. The normalized cell counts were fit with dose response curves and a GI50 was calculated.

The target in test [3] is T1, CDK2/Cyclin E1. Kind of test: CDK2/Cyclin E1 Caliper LabChip EZ Reader mobility shift assay. In kind it is biochemical. As to conditions: 2.5 nM CDK2/Cyclin E1, 100 μM ATP, 1.5 μM fluorescent peptide, 30 min preincubation; read-out: Caliper Assay (CDK2/CCNE1): IC50. On the procedure: Example A1: CDK2/Cyclin E1 Caliper Assay
Inhibition of CDK2/Cyclin E1 activity in the presence of compounds of the present disclosure was evaluated using a Caliper LabChip® EZ Reader mobility shift assay. In the assay, CDK2/Cyclin E1 (Eurofins, 14-475) catalyzed the phosphorylation of a fluorescently tagged peptide 5-FAM-QSPKKG-CONH2 (PerkinElmer, FL Peptide 18) which induced a difference in capillary electrophoresis mobility. The peptide substrate and product were measured, and the conversion ratio was used to determine the inhibition (as % activity and IC50 values) of CDK2/Cyclin E1. Reactions contained 50 mM HEPES pH 7.5, 10 mM MgCl2, 1 mM EDTA, 2 mM DTT, 0.01% Brij35, 0.5 mg/mL BSA, 0.1% DMSO, 2.5 nM CDK2/Cyclin E1, 100 μM ATP, and 1.5 μM fluorescent peptide substrate.
Dose titrations of inhibitors in 100% DMSO were combined with 3.25 nM CDK2/Cyclin E1 and 130 μM of ATP in reaction buffer. The mixtures were incubated for 30 minutes before the addition of fluorescent peptide substrate to initiate the kinase reaction. The final conditions were 2.5 nM CDK2/Cyclin E1, 100 μM ATP, and 1.5 μM fluorescent peptide. The reactions were stopped after 100 minutes with the addition of EDTA (400 mM final EDTA concentration). The stopped reactions were analyzed on a Caliper LabChip® EZ Reader II. The conversion ratios were normalized to yield % activity, plotted against compound concentration, and fit to a four-parameter equation to determine the IC50 for each compound.

In the case of `C[C@@H](OCC1CCCCC1)[C@H](NC(=O)[C@H]1CN(C(=O)c2cncs2)CC12CCOCC2)C(=O)N1CCC(c2ccc(C(=O)O)cc2)CC1` (single isomer, unassigned) [I-4 1st, 4-(1-(O-(cyclohexylmethyl)-N-(2-(thiazole-5-carbonyl)-8-oxa-2-azaspiro[4.5]decane-4-carbonyl)-L-threonyl)piperidin-4-yl)benzoic acid], the IC50 against CDK2/Cyclin E1 [1] is greater than 10 µM; in test [2], greater than 20 µM.
For `C[C@@H](OCC1CCCCC1)[C@H](NC(=O)[C@@H]1CN(C(=O)c2cncs2)CC12CCOCC2)C(=O)N1CCC(c2ccc(C(=O)O)cc2)CC1` (single isomer, unassigned) [I-4 2nd, 4-(1-(O-(cyclohexylmethyl)-N-(2-(thiazole-5-carbonyl)-8-oxa-2-azaspiro[4.5]decane-4-carbonyl)-L-threonyl)piperidin-4-yl)benzoic acid] the same measures were greater than 10 µM and greater than 20 µM.
For `C[C@@H](OCC1CCCCC1)[C@H](NC(=O)[C@@H]1CN(Cc2cnn(Cc3ccccc3)c2)C(=O)C12CN(C(=O)[C@H]1CC1(C)C)C2)C(=O)N1CCC(c2nccs2)CC1` [Compound I-5, (S)-6-((1-benzyl-1H-pyrazol-4-yl)methyl)-N-((2S,3R)-3-(cyclohexylmethoxy)-1-oxo-1-(4-(thiazol-2-yl)piperidin-1-yl)butan-2-yl)-2-((S)-2,2-dimethylcyclopropane-1-carbonyl)-5-oxo-2,6-diazaspiro[3.4]octane-8-carboxamide], the IC50 (at CDK2/Cyclin E1 [1]; in test [2]) was no more than 0.5 µM each time.
For `CC1(C)C[C@@H]1C(=O)N1CC2(C1)C(=O)N(Cc1cncs1)CC2c1nnc(C(F)(F)c2ccc(Cl)c(Cl)c2)o1` (stereo partly drawn) [Compound I-6, 8-(5-((3,4-dichlorophenyl)difluoromethyl)-1,3,4-oxadiazol-2-yl)-2-((S)-2,2-dimethylcyclopropane-1-carbonyl)-6-(thiazol-5-ylmethyl)-2,6-diazaspiro[3.4]octan-5-one], the IC50 is greater than 100 µM against CDK2/Cyclin E1 [1], greater than 10 µM on CDK2/Cyclin E1 [3] and greater than 20 µM in test [2].
As to `CC(=O)N[C@@H](C(=O)NC1CN(C(=O)c2cncs2)CC12CN(C(=O)[C@H]1CC1(C)C)C2)[C@H](C)OCC1CCCCC1` (stereo partly drawn) [Compound I-24, (2R,3S)-2-acetamido-3-(cyclohexylmethoxy)-N-(2-((S)-2,2-dimethylcyclopropane-1-carbonyl)-6-(thiazole-5-carbonyl)-2,6-diazaspiro[3.4]octan-8-yl)butanamide], the figures for the IC50 (at CDK2/Cyclin E1 [3]; in test [2]) were 1 to 10 µM and greater than 20 µM, respectively.
For `CC(=O)N[C@@H](C(=O)NC1CN(C(=O)c2cnn(Cc3ccccc3)c2)CC12CN(C(=O)[C@H]1CC1(C)C)C2)[C@H](C)OCC1CCCCC1` (stereo partly drawn) [Compound I-25, (2R,3S)-2-acetamido-N-(6-(1-benzyl-1H-pyrazole-4-carbonyl)-2-((S)-2,2-dimethylcyclopropane-1-carbonyl)-2,6-diazaspiro[3.4]octan-8-yl)-3-(cyclohexylmethoxy)butanamide] the same measures were 0.1 to 1 µM and greater than 20 µM.
The matching figures for `C[C@@H](OCC1CCCCC1)[C@H](NC(=O)C1CS(=O)(=O)CC12CN(C(=O)[C@H]1CC1(C)C)C2)C(=O)N1CCCCC1` (stereo partly drawn) [Compound I-26, N-((2S,3R)-3-(cyclohexylmethoxy)-1-oxo-1-(piperidin-1-yl)butan-2-yl)-2-((S)-2,2-dimethylcyclopropane-1-carbonyl)-6-thia-2-azaspiro[3.4]octane-8-carboxamide 6,6-dioxide]: greater than 10 µM and greater than 20 µM.
As to `CC1(C)C[C@@H]1C(=O)N1CC2(CN(C(=O)c3cncs3)CC2C#N)C1` (stereo partly drawn) [Compound I-27, 2-((S)-2,2-dimethylcyclopropane-1-carbonyl)-6-(thiazole-5-carbonyl)-2,6-diazaspiro[3.4]octane-8-carbonitrile], the IC50 is greater than 10 µM at CDK2/Cyclin E1 [3] and greater than 20 µM in test [2].
On to `CCOC(=O)[C@@H]1CN(C(C)=O)CC12CN(C(C)=O)C2` [Compound I-28, ethyl (S)-2,6-diacetyl-2,6-diazaspiro[3.4]octane-8-carboxylate], for which the IC50 was greater than 10 µM on CDK2/Cyclin E1 [3] and greater than 20 µM in test [2].
As for `CNC(=O)[C@@H](NC(=O)[C@@H]1CN(C(=O)c2cnn(Cc3ccccc3)c2)CC12CN(C(=O)N(C)C1CC1)C2)[C@@H](C)OCC1CCCCC1` [Compound I-30, (S)-6-(1-benzyl-1H-pyrazole-4-carbonyl)-N8-((2S,3R)-3-(cyclohexylmethoxy)-1-(methylamino)-1-oxobutan-2-yl)-N2-cyclopropyl-N2-methyl-2,6-diazaspiro[3.4]octane-2,8-dicarboxamide], the IC50 was 0.1 to 1 µM on CDK2/Cyclin E1 [3] and greater than 20 µM in test [2].
For `C[C@@H](OCC1CCCCC1)[C@H](NC(=O)[C@@H]1CNCC12CN(C(=O)[C@H]1CC1(C)C)C2)C(=O)N1CCOCC1` [Compound I-32, (S)—N-((2S,3R)-3-(cyclohexylmethoxy)-1-morpholino-1-oxobutan-2-yl)-2-((S)-2,2-dimethylcyclopropane-1-carbonyl)-2,6-diazaspiro[3.4]octane-8-carboxamide] the same measures were greater than 10 µM and greater than 20 µM.
As for `C[C@@H](OCC1CCCCC1)[C@H](NC(=O)[C@@H]1CN(C(=O)OC(C)(C)C)CC12CN(C(=O)[C@H]1CC1(C)C)C2)C(=O)N1CCOCC1` [Compound I-33], the IC50 at CDK2/Cyclin E1 [3] is 1 to 10 µM; in test [2], greater than 20 µM.
`CC(=O)N1C[C@@H](C(=O)N[C@H](C(=O)N2CCOCC2)[C@@H](C)OCC2CCCCC2)C2(C1)CN(C(=O)[C@H]1CC1(C)C)C2` [Compound I-36, (S)-6-acetyl-N-((2S,3R)-3-(cyclohexylmethoxy)-1-morpholino-1-oxobutan-2-yl)-2-((S)-2,2-dimethylcyclopropane-1-carbonyl)-2,6-diazaspiro[3.4]octane-8-carboxamide]: the IC50 was greater than 10 µM at CDK2/Cyclin E1 [3] and greater than 20 µM in test [2].
Take `C[C@@H](OCC1CCCCC1)[C@H](NC(=O)[C@@H]1CNCC12CN(C(=O)[C@H]1CC1(C)C)C2)C(=O)N1CCCCC1` [Compound I-37, (S)—N-((2S,3R)-3-(cyclohexylmethoxy)-1-oxo-1-(piperidin-1-yl)butan-2-yl)-2-((S)-2,2-dimethylcyclopropane-1-carbonyl)-2,6-diazaspiro[3.4]octane-8-carboxamide]: the IC50 was greater than 10 µM on CDK2/Cyclin E1 [3] and greater than 20 µM in test [2].
As for `C[C@@H](OCC1CCCCC1)[C@H](NC(=O)[C@@H]1CN(C(=O)OC(C)(C)C)CC12CN(C(=O)[C@H]1CC1(C)C)C2)C(=O)N1CCCCC1` [Compound I-38], the values for the IC50 (on CDK2/Cyclin E1 [3]; in test [2]) were 1 to 10 µM and greater than 20 µM, respectively.
The matching figures for `CNC(=O)[C@@H](NC(=O)[C@@H]1CN(C(C)=O)CC12CN(C(=O)[C@H]1CC1(C)C)C2)[C@@H](C)OCC1CCCCC1` [Compound I-39]: greater than 10 µM and greater than 20 µM.
Consider `C[C@@H](OCC1CCCCC1)[C@H](NC(=O)C1CN(C(=O)c2cncs2)CC12CCN(C(=O)[C@H]1CC1(C)C)CC2)C(=O)N1CCC(c2ccc(C(=O)O)cc2)CC1` (stereo partly drawn) [Compound I-41, 4-(1-(O-(cyclohexylmethyl)-N-(8-((S)-2,2-dimethylcyclopropane-1-carbonyl)-2-(thiazole-5-carbonyl)-2,8-diazaspiro[4.5]decane-4-carbonyl)-L-threonyl)piperidin-4-yl)benzoic acid], for which the results for the IC50 (on CDK2/Cyclin E1 [1]; in test [2]) were no more than 0.5 µM and greater than 20 µM, respectively.
